According to patent US11214803B2, “Modulators of YAP1 expression” (Ionis Pharmaceuticals, Inc., priority 2019, dated 2022):
pIC50: −log10 of the molar value. Marks after values point to notes of the source that are not given here. Strand notation (5' to 3'): a small letter for the sugar, then the base; units joined by * are phosphorothioate-linked, units joined directly phosphodiester-linked; [ ] holds rarer units or linkages, { } end groups; capitals alone tell only the bases. k = constrained ethyl (cEt); [5mC] = 5-methylcytosine; d = 2'-deoxy (DNA)

Legend:
Yap1 mRNA [1] = assay: Antisense inhibition of human Yap1 in A-431 cells by cEt gapmers, single dose (Example 4, RTS4814); format: cell-based
How it was run: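 Values are % UTC: Yap1 mRNA by quantitative RT-PCR, normalized to RIBOGREEN total RNA. Cells were exposed ~48 h to 2,000 nM oligonucleotide without transfection. Oligonucleotides were 16-nucleoside gapmers with three cEt nucleosides per wing, ten-deoxy gap, P=S linkages throughout.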

Yap1 mRNA [2] = assay: Dose-dependent inhibition of human Yap1 in A-431 cells (Example 8, 10,000 cells per well, RTS4814); format: cell-based; conditions: A-431 cells; for pIC50: Yap1 mRNA
How it was run: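 Yap1 mRNA, normalized to RIBOGREEN total RNA and expressed as % untreated control, was read with RTS4814 about 48 h after free-uptake oligonucleotide treatment of A-431 cells at 10,000 cells/well. IC50 derived by linear regression of log/linear data.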

[3] = Yap1 mRNA remaining as percent of untreated control, 3-10-3 cEt gapmers, A-431 cells, Table 36
[4] = Yap1 mRNA remaining as percent of untreated control, 3-10-3 cEt gapmers, A-431 cells, Table 37
[5] = Table 14, A-431 cells, 5,000 cells per well, free uptake, 2,000 nM, approximately 48 hours, RTS4814, normalized to RIBOGREEN, Yap1 mRNA relative to untreated control, * = targets amplicon region of primer probe set
[6] = Table 16, A-431 cells, 5,000 cells per well, free uptake, 2,000 nM, approximately 48 hours, RTS4814, normalized to RIBOGREEN, Yap1 mRNA relative to untreated control cells
[7] = Table 17, A-431 cells, 5,000 cells per well, free uptake, 2,000 nM, approximately 48 hours, RTS4814, normalized to RIBOGREEN, Yap1 mRNA relative to untreated control cells

| Substance | YAP1 (% UTC) (Yap1 mRNA [1]; [3]) | % UTC (Yap1 mRNA) (Yap1 mRNA [2]; 31.3 nM) [% UTC] | % UTC (Yap1 mRNA) (Yap1 mRNA [2]; 125.0 nM) [% UTC] | % UTC (Yap1 mRNA) (Yap1 mRNA [2]; 500.0 nM) [% UTC] | % UTC (Yap1 mRNA) (Yap1 mRNA [2]; 2000.00 nM) [% UTC] | pIC50 (Yap1 mRNA [2]) | other results |
| --- | --- | --- | --- | --- | --- | --- | --- |
| 1076022 (kT*kA*kA*dT*dT*dA*dG*dA*dT*dG*d[5mC]*dT*dG*kA*k[5mC]*kA; antisense) [compound 1076022] | 2 % UTC | 63 | 28 | 8 | 5 | 7.40 | – |
| 1076183 (k[5mC]*kT*kT*d[5mC]*dT*dA*dT*dA*dA*dT*dT*dA*dG*k[5mC]*k[5mC]*kA; antisense) [compound 1076183] | – | 65 | 22 | 9 | 6 | 7.40 | YAP1 (% UTC) (Yap1 mRNA [1]; [4]): 7 % UTC |
| 1074679 (antisense kT*k[5mC]*kT*dT*dA*dA*dT*d[5mC]*dT*dG*dT*dG*dG*k[5mC]*kT*kA) [compound 1074679] | – | 52 | 16 | 6 | 5 | > 7.70 | YAP1 (% UTC) (Yap1 mRNA [1]; [4]): 5 % UTC |
| 1074230 (antisense kA*kA*kG*dA*dA*dG*dA*d[5mC]*dT*dG*dT*d[5mC]*dG*kA*kA*kG) [compound 1074230] | 4 % UTC | 62 | 30 | 12 | 8 | 7.30 | – |
| 1074678 (antisense kT*kA*kA*dT*d[5mC]*dT*dG*dT*dG*dG*d[5mC]*dT*dA*k[5mC]*kT*kG) [compound 1074678] | 7 % UTC | 73 | 37 | 16 | 10 | 7.00 | – |
| 1076534 (kA*k[5mC]*kT*dA*dT*dA*dA*dA*dG*d[5mC]*dA*dA*dT*kG*k[5mC]*kG; antisense) [compound 1076534] | 4 % UTC | 88 | 48 | 20 | 10 | 6.70 | – |
| 1074454 (kT*kG*kT*dG*dA*d[5mC]*dT*dA*dA*dT*dG*dA*dT*kA*kG*k[5mC]; antisense) [compound 1074454] | 1 % UTC | 39 | 9 | 3 | 3 | > 7.70 | – |
| 1076406 (antisense kA*kT*kT*dA*dT*dT*dT*dA*dA*dG*dA*d[5mC]*d[5mC]*kT*kG*kG) [compound 1076406] | 4 % UTC | 51 | 20 | 9 | 7 | > 7.70 | – |
| 1074486 (kA*kT*kT*d[5mC]*dA*d[5mC]*dT*dA*dA*dT*dA*dT*dG*kG*kT*k[5mC]; antisense) [compound 1074486] | 4 % UTC | 55 | 26 | 10 | 6 | > 7.70 | – |
| 1075766 (kG*kG*kA*dG*dA*dA*d[5mC]*dA*d[5mC]*dA*dA*dG*dA*kG*kG*k[5mC]; antisense) [compound 1075766] | 5 % UTC | 56 | 21 | 11 | 8 | > 7.70 | – |
| 1076439 (k[5mC]*kT*kT*dA*dT*dA*dT*dG*dG*dT*dT*dT*dT*kG*kT*kG) [compound 1076439] | – | 48 | 13 | 6 | 5 | > 7.70 | YAP1 (% UTC) (Yap1 mRNA [1]; [4]): 4 % UTC |
| 1076023 (kA*kT*kA*dA*dT*dT*dA*dG*dA*dT*dG*d[5mC]*dT*kG*kA*k[5mC]; antisense) [compound 1076023] | – | 60 | 18 | 5 | 3 | > 7.70 | YAP1 (% UTC) (Yap1 mRNA [1]; [4]): 4 % UTC |
| 1074326 (antisense kA*k[5mC]*kG*d[5mC]*dA*dG*dG*dG*d[5mC]*dT*dA*dA*d[5mC]*kT*k[5mC]*k[5mC]) [compound 1074326] | 36 % UTC | – | – | – | – | – | – |
| 1075008 (antisense kT*kA*kA*dT*d[5mC]*dG*dA*dA*d[5mC]*dA*dT*dT*dG*kT*kG*kT) [Compound 1075008] | – | – | – | – | – | – | YAP1 (% UTC) (Yap1 mRNA [1]; [5]): 61 % UTC |
| 1074306 (antisense k[5mC]*k[5mC]*kT*d[5mC]*dA*d[5mC]*d[5mC]*dT*dG*d[5mC]*d[5mC]*dG*dA*kA*kG*k[5mC]) [Compound 1074306] | – | – | – | – | – | – | YAP1 (% UTC) (Yap1 mRNA [1]; [6]): 107 % UTC |
| 1074614 (DNA kT*k[5mC]*kA*dT*dA*dG*d[5mC]*dT*dT*dA*dT*dA*dT*kT*kG*kA; antisense) [compound 1074614] | 49 % UTC | – | – | – | – | – | – |
| 1075072 (antisense kT*k[5mC]*k[5mC]*dG*dG*dG*dT*dA*dA*dA*dT*dA*dT*k[5mC]*kT*k[5mC]) [Compound 1075072] | – | – | – | – | – | – | YAP1 (% UTC) (Yap1 mRNA [1]; [5]): 37 % UTC |
| 1075520 (k[5mC]*k[5mC]*k[5mC]*d[5mC]*dA*dA*d[5mC]*dA*dA*d[5mC]*dT*dG*d[5mC]*kT*kA*kA; antisense) [Compound 1075520] | – | – | – | – | – | – | YAP1 (% UTC) (Yap1 mRNA [1]; [5]): 77 % UTC |
| 1075543 (kA*kT*kA*dT*dA*dT*dT*dA*dG*dG*dA*dG*dT*kT*kT*k[5mC]; antisense) [compound 1075543] | – | – | – | – | – | – | YAP1 (% UTC) (Yap1 mRNA [1]; [4]): 22 % UTC |
| 1074305 (antisense k[5mC]*kA*k[5mC]*d[5mC]*dT*dG*d[5mC]*d[5mC]*dG*dA*dA*dG*d[5mC]*kA*kG*kT) [Compound 1074305] | – | – | – | – | – | – | YAP1 (% UTC) (Yap1 mRNA [1]; Table 15, A-431 cells, 5,000 cells per well, free uptake, 2,000 nM, approximately 48 hours, RTS4814, normalized to RIBOGREEN, Yap1 mRNA relative to untreated control, * = targets amplicon region of primer probe set): 64 % UTC |
| 1074262 (antisense kG*k[5mC]*k[5mC]*dG*dA*dG*dT*dT*d[5mC]*dA*dT*d[5mC]*dA*kT*kA*kT) [compound 1074262] | 48 % UTC | – | – | – | – | – | – |
| 1075843 (k[5mC]*kA*kT*dG*dA*dA*dA*dT*dG*dA*dT*dG*dG*kA*kA*k[5mC]; antisense) [Compound 1075843] | – | – | – | – | – | – | YAP1 (% UTC) (Yap1 mRNA [1]; [7]): 47 % UTC |
| 1075362 (k[5mC]*kA*kG*dG*dA*dA*dA*dA*dA*dT*d[5mC]*dT*dA*kG*kG*kT; antisense) [Compound 1075362] | – | – | – | – | – | – | YAP1 (% UTC) (Yap1 mRNA [1]; [6]): 50 % UTC |
| 1075267 (antisense k[5mC]*kT*kA*dT*dT*dT*dA*dG*dA*dA*dT*dA*dA*kG*kT*kG) [Compound 1075267] | – | – | – | – | – | – | YAP1 (% UTC) (Yap1 mRNA [1]; [7]): 83 % UTC |
| 1074422 (kA*kA*kA*d[5mC]*dA*dG*dG*d[5mC]*dT*d[5mC]*dA*d[5mC]*dT*kT*k[5mC]*k[5mC]; antisense) [compound 1074422] | 9* % UTC | – | – | – | – | – | – |
| 1076162 (kA*kT*kT*dT*dA*d[5mC]*dT*dT*dG*dG*d[5mC]*dA*dA*k[5mC]*kT*k[5mC]; antisense) [Compound 1076162] | – | – | – | – | – | – | YAP1 (% UTC) (Yap1 mRNA [1]; [6]): 9 % UTC |
| 1076288 (k[5mC]*kT*kT*dA*dT*dT*dT*dA*dG*d[5mC]*dA*dT*dA*kG*kT*kG; antisense) [Compound 1076288] | – | – | – | – | – | – | YAP1 (% UTC) (Yap1 mRNA [1]; [5]): 3 % UTC |
| 1075767 (kT*kA*kT*dT*dA*d[5mC]*dA*d[5mC]*dA*dG*dG*d[5mC]*dA*kG*kG*k[5mC]; antisense) [compound 1075767] | – | – | – | – | – | – | YAP1 (% UTC) (Yap1 mRNA [1]; [4]): 12 % UTC |
| 1076512 (antisense k[5mC]*kA*kT*dA*dA*dA*d[5mC]*d[5mC]*dA*dT*dT*dA*dA*kG*kT*kG) [Compound 1076512] | – | – | – | – | – | – | YAP1 (% UTC) (Yap1 mRNA [1]; [5]): 65 % UTC |
